ChEMBL document CHEMBL3217418, “Design, synthesis and biological activity evaluation of regioisomeric spiro-(indoline-isoxazolidines) in the inhibition of TNF--induced ICAM-1 expression on human endothelial cells” (Medchemcomm, 2012)
Activity calls are given as the source filed them. No cut-off for these calls is given here.

system: HUVEC; assay: Antiinflammatory activity in HUVEC assessed as inhibition of TNFalpha-induced ICAM-1 expression incubated for 2 hrs prior to TNFalpha challenge measured after 16 hrs by ELISA; assay type: functional, cell-based; conditions: Homo sapiens

`CCOC(=O)C1ON(c2ccccc2)C(c2ccc(F)c(F)c2)C12C(=O)Nc1ccc(F)cc12` (stereo not drawn) and `CCOC(=O)C1ON(c2ccccc2)C(c2ccc(Cl)cc2)C12C(=O)Nc1ccc(F)cc12` (stereo not drawn) are within 1.5-fold of each other in IC50: 62 µM for the first, 54 µM for the second.

Going from `CCOC(=O)C1ON(c2ccccc2)C(c2cccc(F)c2)C12C(=O)Nc1ccccc12` (stereo not drawn) to `CCOC(=O)C1ON(c2ccccc2)C(c2cccc(C)c2)C12C(=O)Nc1ccccc12` (stereo not drawn), the IC50 falls from over 162 µM to 35 µM.

Compared with `CCOC(=O)C1C(c2cccc(Br)c2)N(c2ccccc2)OC12C(=O)Nc1ccccc12` (stereo not drawn), `CCOC(=O)C1C(c2cccc(Cl)c2)N(c2ccccc2)OC12C(=O)Nc1ccccc12` (stereo not drawn) is 2.9-fold lower in IC50: 100 µM for the first, 35 µM for the second.

Compared with `CCOC(=O)C1C(c2ccc(C)cc2)N(c2ccccc2)OC12C(=O)Nc1ccccc12` (stereo not drawn), `CCOC(=O)C1C(c2ccc(F)cc2)N(c2ccccc2)OC12C(=O)Nc1ccccc12` (stereo not drawn) is 4.7-fold higher in IC50: 31 µM for the first, 146 µM for the second.

`CCOC(=O)C1C(c2cccc(OC)c2OC)N(c2ccccc2)OC12C(=O)Nc1ccc(F)cc12` (stereo not drawn) and `CCOC(=O)C1C(c2cccc(F)c2)N(c2ccccc2)OC12C(=O)Nc1ccccc12` (stereo not drawn) are within 1.5-fold of each other in IC50: 27 µM for the first, 35 µM for the second.

Compared with `CCOC(=O)C1C(c2ccc(Br)cc2)N(c2ccccc2)OC12C(=O)Nc1ccccc12` (stereo not drawn), `CCOC(=O)C1C(c2ccc([N+](=O)[O-])cc2)N(c2ccccc2)OC12C(=O)Nc1ccccc12` (stereo not drawn) is higher in IC50: 41 µM for the first, over 217 µM for the second. The first is the more potent here.

First: CCOC(=O)C1ON(c2ccccc2)C(c2ccc([N+](=O)[O-])cc2)C12C(=O)Nc1ccc(F)cc12 (stereo not drawn)
Second: CCOC(=O)C1ON(c2ccccc2)C(c2ccc([N+](=O)[O-])cc2)C12C(=O)Nc1ccccc12 (stereo not drawn)
The IC50 of the first is lower: 32 µM for the first, over 217 µM for the second.

`CCOC(=O)C1C(c2cccc([N+](=O)[O-])c2)N(c2ccccc2)OC12C(=O)Nc1ccccc12` (stereo not drawn) and `CCOC(=O)C1ON(c2ccccc2)C(c2cccc(C)c2)C12C(=O)Nc1ccc(F)cc12` (stereo not drawn) are the same in IC50: 45 µM for the first, 45 µM for the second.

`CCOC(=O)C1ON(c2ccccc2)C(c2ccc(C#N)cc2)C12C(=O)Nc1ccc(F)cc12` (stereo not drawn) and `CCOC(=O)C1ON(c2ccccc2)C(c2ccc(C(F)(F)F)cc2)C12C(=O)Nc1ccc(F)cc12` (stereo not drawn) are within 1.5-fold of each other in IC50: 48 µM for the first, 57 µM for the second.

Compound `CCOC(=O)C1ON(c2ccccc2)C(c2cccc(F)c2)C12C(=O)Nc1ccc(F)cc12` (stereo not drawn) has an IC50 of 66 µM.

target: Transcription factor p65 (Homo sapiens) (UniProt Q04206); assay: Inhibition of NF-kappaB p65 subunit translocation from cytoplasm to nucleus in HUVEC at 100 uM incubated for 2 hrs prior to TNFalpha challenge measured after 30 mins by SDS-PAGE; conditions: not given
Sequence (Q04206 whole entry): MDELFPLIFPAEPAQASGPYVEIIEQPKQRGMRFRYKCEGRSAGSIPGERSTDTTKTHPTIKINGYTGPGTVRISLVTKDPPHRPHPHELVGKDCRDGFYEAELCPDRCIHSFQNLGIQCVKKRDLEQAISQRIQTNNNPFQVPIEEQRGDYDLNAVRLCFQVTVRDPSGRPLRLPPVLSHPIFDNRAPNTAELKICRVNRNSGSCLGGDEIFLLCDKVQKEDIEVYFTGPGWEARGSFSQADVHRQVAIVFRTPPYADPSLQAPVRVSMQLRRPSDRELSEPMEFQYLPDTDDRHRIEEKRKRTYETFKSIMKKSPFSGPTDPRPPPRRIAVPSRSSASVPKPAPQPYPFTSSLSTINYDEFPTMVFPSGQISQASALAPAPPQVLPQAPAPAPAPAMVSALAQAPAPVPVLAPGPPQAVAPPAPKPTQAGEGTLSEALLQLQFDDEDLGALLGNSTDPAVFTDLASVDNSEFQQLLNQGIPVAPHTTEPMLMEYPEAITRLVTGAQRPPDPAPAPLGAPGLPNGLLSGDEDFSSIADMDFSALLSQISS

For `S=C(S)N1CCCC1`, the inhibition was “Active”.

system: not listed separately; assay: Cytotoxicity against HUVEC assessed as concentration at which viability is > 95 % after 24 hrs by MTT assay; assay type: cell-based; conditions: human, HUVEC cells; read-out: MTD

`CCOC(=O)C1ON(c2ccccc2)C(c2ccc(F)c(F)c2)C12C(=O)Nc1ccc(F)cc12` (stereo not drawn) and `CCOC(=O)C1ON(c2ccccc2)C(c2ccc(Cl)cc2)C12C(=O)Nc1ccc(F)cc12` (stereo not drawn) are the same in MNTC at 24 h: 107 µM for the first, 107 µM for the second.

`CCOC(=O)C1ON(c2ccccc2)C(c2cccc(F)c2)C12C(=O)Nc1ccccc12` (stereo not drawn) and `CCOC(=O)C1ON(c2ccccc2)C(c2cccc(C)c2)C12C(=O)Nc1ccccc12` (stereo not drawn) are within 1.5-fold of each other in MNTC at 24 h: 231 µM for the first, 234 µM for the second.

`CCOC(=O)C1C(c2cccc(Br)c2)N(c2ccccc2)OC12C(=O)Nc1ccccc12` (stereo not drawn) and `CCOC(=O)C1C(c2cccc(Cl)c2)N(c2ccccc2)OC12C(=O)Nc1ccccc12` (stereo not drawn) are within 1.5-fold of each other in MNTC at 24 h: 203 µM for the first, 223 µM for the second.

`CCOC(=O)C1C(c2ccc(C)cc2)N(c2ccccc2)OC12C(=O)Nc1ccccc12` (stereo not drawn) and `CCOC(=O)C1C(c2ccc(F)cc2)N(c2ccccc2)OC12C(=O)Nc1ccccc12` (stereo not drawn) are within 1.5-fold of each other in MNTC at 24 h: 234 µM for the first, 231 µM for the second.

`CCOC(=O)C1C(c2cccc(OC)c2OC)N(c2ccccc2)OC12C(=O)Nc1ccc(F)cc12` (stereo not drawn) and `CCOC(=O)C1C(c2cccc(F)c2)N(c2ccccc2)OC12C(=O)Nc1ccccc12` (stereo not drawn) are within 1.5-fold of each other in MNTC at 24 h: 102 µM for the first, 116 µM for the second.

`CCOC(=O)C1C(c2ccc(Br)cc2)N(c2ccccc2)OC12C(=O)Nc1ccccc12` (stereo not drawn) and `CCOC(=O)C1C(c2ccc([N+](=O)[O-])cc2)N(c2ccccc2)OC12C(=O)Nc1ccccc12` (stereo not drawn) are within 1.5-fold of each other in MNTC at 24 h: 203 µM for the first, 218 µM for the second.

First: CCOC(=O)C1ON(c2ccccc2)C(c2ccc([N+](=O)[O-])cc2)C12C(=O)Nc1ccc(F)cc12 (stereo not drawn)
Second: CCOC(=O)C1ON(c2ccccc2)C(c2ccc([N+](=O)[O-])cc2)C12C(=O)Nc1ccccc12 (stereo not drawn)
The MNTC at 24 h of the first is 2.1-fold lower: 105 µM for the first, 218 µM for the second.

First: CCOC(=O)C1C(c2cccc([N+](=O)[O-])c2)N(c2ccccc2)OC12C(=O)Nc1ccccc12 (stereo not drawn)
Second: CCOC(=O)C1ON(c2ccccc2)C(c2cccc(C)c2)C12C(=O)Nc1ccc(F)cc12 (stereo not drawn)
The MNTC at 24 h of the first is 1.9-fold higher: 218 µM for the first, 112 µM for the second.

`CCOC(=O)C1ON(c2ccccc2)C(c2ccc(C#N)cc2)C12C(=O)Nc1ccc(F)cc12` (stereo not drawn) and `CCOC(=O)C1ON(c2ccccc2)C(c2ccc(C(F)(F)F)cc2)C12C(=O)Nc1ccc(F)cc12` (stereo not drawn) are within 1.5-fold of each other in MNTC at 24 h: 110 µM for the first, 100 µM for the second.

With `CCOC(=O)C1ON(c2ccccc2)C(c2cccc(F)c2)C12C(=O)Nc1ccc(F)cc12` (stereo not drawn) the MNTC at 24 h was 111 µM.

system: not listed separately; assay: Cytotoxicity against HUVEC assessed as cell viability after 24 hrs by MTT assay relative to control; assay type: cell-based; parameters: concentration or dose not given beside the values; conditions: human, HUVEC cells; read-out: Activity

Going from `CCOC(=O)C1ON(c2ccccc2)C(c2ccc(F)c(F)c2)C12C(=O)Nc1ccc(F)cc12` (stereo not drawn) to `CCOC(=O)C1ON(c2ccccc2)C(c2ccc(Cl)cc2)C12C(=O)Nc1ccc(F)cc12` (stereo not drawn), the viability at 24 h rises from 95% to 96%.

`CCOC(=O)C1ON(c2ccccc2)C(c2cccc(F)c2)C12C(=O)Nc1ccccc12` (stereo not drawn) and `CCOC(=O)C1ON(c2ccccc2)C(c2cccc(C)c2)C12C(=O)Nc1ccccc12` (stereo not drawn) are the same in viability at 24 h: 98% for the first, 98% for the second.

First: CCOC(=O)C1C(c2cccc(Br)c2)N(c2ccccc2)OC12C(=O)Nc1ccccc12 (stereo not drawn)
Second: CCOC(=O)C1C(c2cccc(Cl)c2)N(c2ccccc2)OC12C(=O)Nc1ccccc12 (stereo not drawn)
The viability at 24 h of the first is lower: 95% for the first, 97% for the second.

`CCOC(=O)C1C(c2ccc(C)cc2)N(c2ccccc2)OC12C(=O)Nc1ccccc12` (stereo not drawn) and `CCOC(=O)C1C(c2ccc(F)cc2)N(c2ccccc2)OC12C(=O)Nc1ccccc12` (stereo not drawn) are the same in viability at 24 h: 96% for the first, 96% for the second.

Compared with `CCOC(=O)C1C(c2cccc(OC)c2OC)N(c2ccccc2)OC12C(=O)Nc1ccc(F)cc12` (stereo not drawn), `CCOC(=O)C1C(c2cccc(F)c2)N(c2ccccc2)OC12C(=O)Nc1ccccc12` (stereo not drawn) is lower in viability at 24 h: 99% for the first, 98% for the second.

Going from `CCOC(=O)C1C(c2ccc(Br)cc2)N(c2ccccc2)OC12C(=O)Nc1ccccc12` (stereo not drawn) to `CCOC(=O)C1C(c2ccc([N+](=O)[O-])cc2)N(c2ccccc2)OC12C(=O)Nc1ccccc12` (stereo not drawn), the viability at 24 h rises from 96% to 97%.

`CCOC(=O)C1ON(c2ccccc2)C(c2ccc([N+](=O)[O-])cc2)C12C(=O)Nc1ccc(F)cc12` (stereo not drawn) and `CCOC(=O)C1ON(c2ccccc2)C(c2ccc([N+](=O)[O-])cc2)C12C(=O)Nc1ccccc12` (stereo not drawn) are the same in viability at 24 h: 97% for the first, 97% for the second.

`CCOC(=O)C1C(c2cccc([N+](=O)[O-])c2)N(c2ccccc2)OC12C(=O)Nc1ccccc12` (stereo not drawn) and `CCOC(=O)C1ON(c2ccccc2)C(c2cccc(C)c2)C12C(=O)Nc1ccc(F)cc12` (stereo not drawn) are the same in viability at 24 h: 98% for the first, 98% for the second.

`CCOC(=O)C1ON(c2ccccc2)C(c2ccc(C#N)cc2)C12C(=O)Nc1ccc(F)cc12` (stereo not drawn) and `CCOC(=O)C1ON(c2ccccc2)C(c2ccc(C(F)(F)F)cc2)C12C(=O)Nc1ccc(F)cc12` (stereo not drawn) are the same in viability at 24 h: 96% for the first, 96% for the second.

In the case of `CCOC(=O)C1ON(c2ccccc2)C(c2cccc(F)c2)C12C(=O)Nc1ccc(F)cc12` (stereo not drawn), the viability at 24 h is reported as 95%.
